ChEMBL document CHEMBL2016493, “Design, synthesis, synergistic antimicrobial activity and cytotoxicity of 4-aryl substituted 3,4-dihydropyrimidinones of curcumin” (Bioorg Med Chem Lett, 2012)
Active and inactive are the calls of the source. The rule behind the calls is not given here.

Tests used:
[1] = test system: Aspergillus niger; test: Antifungal activity against Aspergillus niger MTCC 1108 at 20 uM/ml after 48 hrs by paper disc diffusion method; assay type: functional
[2] = test system: Escherichia coli; test: Antibacterial activity against Escherichia coli ATCC 35218 at 20 uM/ml after 24 hrs by kirby-bauer method; assay type: functional
[3] = test system: Aspergillus niger; test: Antifungal activity against Aspergillus niger MTCC 1108 at 160 uM/ml after 48 hrs by paper disc diffusion method; assay type: functional; details: MTCC 1108, 48 h, read-out: IZ
[4] = test system: Pseudomonas aeruginosa; test: Antibacterial activity against Pseudomonas aeruginosa ATCC 15499 at 80 uM/ml after 24 hrs by kirby-bauer method; assay type: functional; details: ATCC 15499, 24 h, read-out: IZ
[5] = test system: Aspergillus flavus; test: Antifungal activity against Aspergillus flavus MTCC 1021 at 20 uM/ml after 48 hrs by paper disc diffusion method; assay type: functional
[6] = test system: Trichoderma viride; test: Antifungal activity against Trichoderma viride MTCC 1107 at 160 uM/ml after 48 hrs by paper disc diffusion method; assay type: functional; details: MTCC 1107, 48 h, read-out: IZ
[7] = test system: Trichoderma viride; test: Antifungal activity against Trichoderma viride MTCC 1107 at 40 uM/ml after 48 hrs by paper disc diffusion method; assay type: functional; details: MTCC 1107, 48 h, read-out: IZ
[8] = test system: Pseudomonas aeruginosa; test: Antibacterial activity against Pseudomonas aeruginosa ATCC 15499 at 40 uM/ml after 24 hrs by kirby-bauer method; assay type: functional; details: ATCC 15499, 24 h, read-out: IZ
[9] = test system: Aspergillus niger; test: Antifungal activity against Aspergillus niger MTCC 1108 at 80 uM/ml after 48 hrs by paper disc diffusion method; assay type: functional; details: MTCC 1108, 48 h, read-out: IZ
[10] = test system: Escherichia coli; test: Antibacterial activity against Escherichia coli ATCC 35218 at 40 uM/ml after 24 hrs by kirby-bauer method; assay type: functional; details: ATCC 35218, 24 h, read-out: IZ
[11] = test system: HCT-116
[12] = test system: Curvularia lunata; test: Antifungal activity against Curvularia lunata MTCC 581 at 80 uM/ml after 48 hrs by paper disc diffusion method; assay type: functional; details: MTCC 581, 48 h, read-out: IZ
[13] = test system: Aspergillus flavus; test: Antifungal activity against Aspergillus flavus MTCC 1021 at 160 uM/ml after 48 hrs by paper disc diffusion method; assay type: functional; details: MTCC 1021, 48 h, read-out: IZ
[14] = test system: Escherichia coli; test: Antibacterial activity against Escherichia coli ATCC 35218 at 80 uM/ml after 24 hrs by kirby-bauer method; assay type: functional; details: ATCC 35218, 24 h, read-out: IZ
[15] = test system: Curvularia lunata; test: Antifungal activity against Curvularia lunata MTCC 581 at 20 uM/ml after 48 hrs by paper disc diffusion method; assay type: functional; details: MTCC 581, 48 h, read-out: IZ
[16] = test system: HepG2
[17] = test system: Curvularia lunata; test: Antifungal activity against Curvularia lunata MTCC 581 at 40 uM/ml after 48 hrs by paper disc diffusion method; assay type: functional; details: MTCC 581, 48 h, read-out: IZ
[18] = test system: Staphylococcus aureus; test: Antibacterial activity against Staphylococcus aureus ATCC 11632 at 160 uM/ml after 24 hrs by kirby-bauer method; assay type: functional
[19] = test system: Pseudomonas aeruginosa; test: Antibacterial activity against Pseudomonas aeruginosa ATCC 15499 at 20 uM/ml after 24 hrs by kirby-bauer method; assay type: functional; details: ATCC 15499, 24 h, read-out: IZ
[20] = test system: Aspergillus flavus; test: Antifungal activity against Aspergillus flavus MTCC 1021 at 40 uM/ml after 48 hrs by paper disc diffusion method; assay type: functional
[21] = test system: Aspergillus flavus; test: Antifungal activity against Aspergillus flavus MTCC 1021 at 80 uM/ml after 48 hrs by paper disc diffusion method; assay type: functional
[22] = test system: Burkholderia pseudomallei; test: Antibacterial activity against Burkholderia pseudomallei NTCC 10274 at 80 uM/ml after 24 hrs by kirby-bauer method; assay type: functional; details: NTCC 10274, 24 h, read-out: IZ
[23] = test system: Burkholderia pseudomallei; test: Antibacterial activity against Burkholderia pseudomallei NTCC 10274 at 20 uM/ml after 24 hrs by kirby-bauer method; assay type: functional; details: NTCC 10274, 24 h, read-out: IZ
[24] = test system: Trichoderma viride; test: Antifungal activity against Trichoderma viride MTCC 1107 at 80 uM/ml after 48 hrs by paper disc diffusion method; assay type: functional; details: MTCC 1107, 48 h, read-out: IZ
[25] = test system: Burkholderia pseudomallei; test: Antibacterial activity against Burkholderia pseudomallei NTCC 10274 at 160 uM/ml after 24 hrs by kirby-bauer method; assay type: functional; details: NTCC 10274, 24 h, read-out: IZ
[26] = test system: Curvularia lunata; test: Antifungal activity against Curvularia lunata MTCC 581 at 160 uM/ml after 48 hrs by paper disc diffusion method; assay type: functional; details: MTCC 581, 48 h, read-out: IZ
[27] = test system: Aspergillus niger; test: Antifungal activity against Aspergillus niger MTCC 1108 at 40 uM/ml after 48 hrs by paper disc diffusion method; assay type: functional
[28] = test system: Salmonella typhimurium; test: Antibacterial activity against Salmonella typhimurium ATCC 23564 at 160 uM/ml after 24 hrs by kirby-bauer method; assay type: functional
[29] = test system: Trichoderma viride; test: Antifungal activity against Trichoderma viride MTCC 1107 at 20 uM/ml after 48 hrs by paper disc diffusion method; assay type: functional; details: MTCC 1107, 48 h, read-out: IZ
[30] = test system: Escherichia coli; test: Antibacterial activity against Escherichia coli ATCC 35218 at 160 uM/ml after 24 hrs by kirby-bauer method; assay type: functional; details: ATCC 35218, 24 h, read-out: IZ
[31] = test system: QG-56; test: Cytotoxicity against human QG56 cells after 48 hrs by MTT assay; assay type: functional, cell-based
[32] = test system: Pseudomonas aeruginosa; test: Antibacterial activity against Pseudomonas aeruginosa ATCC 15499 at 160 uM/ml after 24 hrs by kirby-bauer method; assay type: functional; details: ATCC 15499, 24 h, read-out: IZ
[33] = test system: Burkholderia pseudomallei; test: Antibacterial activity against Burkholderia pseudomallei NTCC 10274 at 40 uM/ml after 24 hrs by kirby-bauer method; assay type: functional; details: NTCC 10274, 24 h, read-out: IZ
[34] = test system: Staphylococcus aureus; test: Antibacterial activity against Staphylococcus aureus ATCC 11632 at 40 uM/ml after 24 hrs by kirby-bauer method; assay type: functional; details: ATCC 11632, 24 h, read-out: IZ
[35] = test system: Staphylococcus aureus; test: Antibacterial activity against Staphylococcus aureus ATCC 11632 at 20 uM/ml after 24 hrs by kirby-bauer method; assay type: functional; details: ATCC 11632, 24 h, read-out: IZ
[36] = test system: Salmonella typhimurium; test: Antibacterial activity against Salmonella typhimurium ATCC 23564 at 20 uM/ml after 24 hrs by kirby-bauer method; assay type: functional, Salmonella enterica subsp. enterica serovar Typhimurium; details: Salmonella enterica, ATCC 23564, 24 h; read-out: IZ
[37] = test system: Salmonella typhimurium; test: Antibacterial activity against Salmonella typhimurium ATCC 23564 at 40 uM/ml after 24 hrs by kirby-bauer method; assay type: functional, Salmonella enterica subsp. enterica serovar Typhimurium; details: Salmonella enterica, ATCC 23564, 24 h; read-out: IZ
[38] = test system: Salmonella typhimurium; test: Antibacterial activity against Salmonella typhimurium ATCC 23564 at 80 uM/ml after 24 hrs by kirby-bauer method; assay type: functional, Salmonella enterica subsp. enterica serovar Typhimurium; details: Salmonella enterica, ATCC 23564, 24 h; read-out: IZ
[39] = test system: Staphylococcus aureus; test: Antibacterial activity against Staphylococcus aureus ATCC 11632 at 80 uM/ml after 24 hrs by kirby-bauer method; assay type: functional; details: ATCC 11632, 24 h, read-out: IZ

COc1ccc(C2NC(=S)NC(/C=C/c3ccc(O)c(OC)c3)=C2C(=O)/C=C/c2ccc(O)c(OC)c2)cc1 (stereo not drawn)
inhibition zone (IZ) [1]: inactive
inhibition zone (IZ) [2]: inactive
zone of inhibition at 160 µM [3]: 11 mm
zone of inhibition at 80 µM [4]: 20 mm
inhibition zone (IZ) [5]: inactive
zone of inhibition at 160 µM [6]: 23 mm
zone of inhibition [7]: 18 mm
zone of inhibition at 40 µM [8]: 19 mm
zone of inhibition at 80 µM [9]: 9 mm
zone of inhibition at 40 µM [10]: 9 mm
IC50 [11]: 50 uM/ml
zone of inhibition at 80 µM [12]: 21 mm
zone of inhibition at 160 µM [13]: 9 mm
zone of inhibition at 80 µM [14]: 14 mm
zone of inhibition at 20 µM [15]: 16 mm
IC50 [16]: 100 uM/ml
zone of inhibition at 40 µM [17]: 18 mm
inhibition zone (IZ) [18]: inactive
zone of inhibition at 20 µM [19]: 18 mm
inhibition zone (IZ) [20]: inactive
inhibition zone (IZ) [21]: inactive
zone of inhibition at 80 µM [22]: 21 mm
zone of inhibition at 20 µM [23]: 16 mm
zone of inhibition at 80 µM [24]: 19 mm
zone of inhibition at 160 µM [25]: 24 mm
zone of inhibition at 160 µM [26]: 24 mm
inhibition zone (IZ) [27]: inactive
inhibition zone (IZ) ([28]; Salmonella enterica subsp. enterica serovar Typhimurium): inactive
zone of inhibition at 20 µM [29]: 17 mm
zone of inhibition at 160 µM [30]: 18 mm
IC50 [31]: 50 uM/ml
zone of inhibition at 160 µM [32]: 23 mm
zone of inhibition at 40 µM [33]: 19 mm

CC1(C)S[C@@H]2[C@H](NC(=O)[C@H](N)c3ccccc3)C(=O)N2[C@H]1C(=O)O [AMPICILLIN]
zone of inhibition at 40 µM [34]: 29 mm
zone of inhibition at 20 µM [35]: 28 mm
zone of inhibition at 20 µM ([2]; ATCC 35218, 24 h, read-out: IZ): 30 mm
zone of inhibition at 80 µM [4]: 36 mm
zone of inhibition at 40 µM [8]: 34 mm
zone of inhibition at 20 µM [36]: 37 mm
zone of inhibition at 40 µM [10]: 30 mm
zone of inhibition at 40 µM [37]: 44 mm
zone of inhibition at 80 µM [14]: 32 mm
zone of inhibition at 160 µM ([18]; ATCC 11632, 24 h, read-out: IZ): 37 mm
zone of inhibition at 80 µM [38]: 45 mm
zone of inhibition at 20 µM [19]: 31 mm
zone of inhibition at 80 µM [22]: 41 mm
zone of inhibition at 20 µM [23]: 38 mm
zone of inhibition at 160 µM [25]: 46 mm
zone of inhibition at 160 µM ([28]; Salmonella enterica, ATCC 23564, 24 h, read-out: IZ): 51 mm
zone of inhibition at 160 µM [30]: 34 mm
zone of inhibition at 80 µM [39]: 30 mm
zone of inhibition at 160 µM [32]: 39 mm
zone of inhibition at 40 µM [33]: 39 mm
